Measurements taken from publication PMC9133015 (Nature Communications, 2022).
Several values for one entry are separate records, joined by “and”; a condition that tells them apart may be missing. Equal entries are not always repeated.

Target: T1, DYRK2 (Homo sapiens, UniProt Q92630)
T1 construct: purchased Reaction Biology Corporation (assay service)
T1 sequence (Q92630 1-601): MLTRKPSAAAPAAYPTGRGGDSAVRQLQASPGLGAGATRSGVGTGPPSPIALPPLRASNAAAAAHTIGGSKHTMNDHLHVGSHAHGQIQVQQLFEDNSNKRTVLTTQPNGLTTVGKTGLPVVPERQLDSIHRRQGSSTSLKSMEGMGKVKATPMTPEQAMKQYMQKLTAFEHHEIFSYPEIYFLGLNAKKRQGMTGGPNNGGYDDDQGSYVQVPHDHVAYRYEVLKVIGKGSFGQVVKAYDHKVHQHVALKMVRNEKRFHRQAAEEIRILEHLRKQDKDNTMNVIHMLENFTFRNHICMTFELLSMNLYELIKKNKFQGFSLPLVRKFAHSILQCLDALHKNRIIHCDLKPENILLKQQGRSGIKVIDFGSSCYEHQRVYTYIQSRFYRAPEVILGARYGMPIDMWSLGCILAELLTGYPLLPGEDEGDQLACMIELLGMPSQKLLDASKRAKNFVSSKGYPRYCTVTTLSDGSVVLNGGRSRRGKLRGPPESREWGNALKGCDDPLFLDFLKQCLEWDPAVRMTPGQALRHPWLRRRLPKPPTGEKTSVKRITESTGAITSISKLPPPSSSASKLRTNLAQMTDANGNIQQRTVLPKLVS
Assay: DYRKs kinase activity assay (33P-ATP, DYRKtide substrate): DYRK2
Format: biochemical
Conditions: for IC50: read-out: DYRK2 IC50; for DYRK2 inhibitory activity (in words): structural optimization of lead 12

[1] = DYRK2 kinase, Conc. 0.000508053 µM, duplicate values
[2] = DYRK2 kinase, Conc. 0.00152416 µM, duplicate values
[3] = DYRK2 kinase, Conc. 0.00152416 µM, duplicate values, read-out: % Inhibition
[4] = DYRK2 kinase, Conc. 0.00457247 µM, duplicate values
[5] = DYRK2 kinase, Conc. 0.0137174 µM, duplicate values
[6] = DYRK2 kinase, Conc. 0.0137174 µM, duplicate values, read-out: % Inhibition
[7] = DYRK2 kinase, Conc. 0.0411523 µM, duplicate values
[8] = DYRK2 kinase, Conc. 0.0411523 µM, duplicate values, read-out: % Inhibition
[9] = DYRK2 kinase, Conc. 0.123457 µM, duplicate values
[10] = DYRK2 kinase, Conc. 0.123457 µM, duplicate values, read-out: % Inhibition
[11] = DYRK2 kinase, Conc. 0.37037 µM, duplicate values, read-out: % Inhibition
[12] = DYRK2 kinase, Conc. 1.11111 µM, duplicate values, read-out: % Inhibition
[13] = DYRK2 kinase, Conc. 3.33333 µM, duplicate values, read-out: % Inhibition
[14] = DYRK2 kinase, Conc. 10 µM, duplicate values, read-out: % Inhibition
[15] = DYRK2 kinase, Conc. 0.37037 µM, duplicate values
[16] = DYRK2 kinase, Conc. 1.11111 µM, duplicate values
[17] = DYRK2 kinase, Conc. 3.33333 µM, duplicate values
[18] = DYRK2 kinase, Conc. 10 µM, duplicate values
[19] = DYRK2 kinase, Conc. 1.66667 µM, duplicate values

Compound | % Inhibition [1] | % Inhibition [2] | inhibition at 0.00152416 µM [3] [%] | % Inhibition [4] | inhibition at 0.00457247 µM [4] [%] | % Inhibition [5] | inhibition at 0.0137174 µM [6] [%] | % Inhibition [7] | inhibition at 0.0411523 µM [8] [%] | % Inhibition [9] | inhibition at 0.123457 µM [10] [%] | inhibition at 0.37037 µM [11] [%] | inhibition at 1.11111 µM [12] [%] | inhibition at 3.33333 µM [13] [%] | inhibition at 10 µM [14] [%] | IC50 [nM] | % Inhibition [15] | % Inhibition [16] | % Inhibition [17] [%] | % Inhibition [18] [%] | also measured
CCN1CCN(C(=O)c2ccc(Nc3ncc(F)c(-c4ccc5nc(C)sc5c4)n3)nc2)CC1 [Compound 23] | 9.47% | 18.47% | 20.2 | 32.91% | 32.2 | 41.99% | 41.4 | 56.16% | 55.9 | 70.45% | 70.4 | 84.9 | 92.2 | 95.8 | 96.2 | 22 |  |  |  |  | inhibition at 0.000508053 µM [1]: 9.2%
Cc1nc2ccc(-c3nc(Nc4ccc(C(=O)N5CCNCC5)cn4)ncc3F)cc2s1.Cl [Compound 24] | 2.20% and 10.58% | 4.62% and 14.25% |  | 24.52% | 19.2 | 39.86% | 35.4 | 60.50% | 61 | 75.45% | 73 | 86.1 | 92 | 95 | 97 | 27 | 85.34% | 90.57% | 94.68 | 98.21 | 
CCN1CCN(C(=O)c2ccc(Nc3ncc(F)c(-c4ccc5nc(N(C)C)sc5c4)n3)nc2)CC1 [Compound 26 (YK-2-69)] |  |  |  |  |  |  |  |  |  |  |  |  |  |  |  |  |  |  |  |  | % Inhibition (DYRK2 kinase, Conc. 0.000762079 µM, duplicate values): 2.89% and 7.10%; % Inhibition (DYRK2 kinase, Conc. 0.00228624 µM, duplicate values): 21.49%; inhibition at 0.00228624 µM (DYRK2 kinase, Conc. 0.00228624 µM, duplicate values, read-out: % Inhibition): 26.1%; % Inhibition (DYRK2 kinase, Conc. 0.00685871 µM, duplicate values): 46.13%; inhibition at 0.00685871 µM (DYRK2 kinase, Conc. 0.00685871 µM, duplicate values, read-out: % Inhibition): 53%; % Inhibition (DYRK2 kinase, Conc. 0.0205761 µM, duplicate values): 59.65%; inhibition at 0.0205761 µM (DYRK2 kinase, Conc. 0.0205761 µM, duplicate values, read-out: % Inhibition): 65.2%; % Inhibition (DYRK2 kinase, Conc. 0.0617284 µM, duplicate values): 82.13%; inhibition at 0.0617284 µM (DYRK2 kinase, Conc. 0.0617284 µM, duplicate values, read-out: % Inhibition): 82.1%; % Inhibition (DYRK2 kinase, Conc. 0.185185 µM, duplicate values): 93.18%; inhibition at 0.185185 µM (DYRK2 kinase, Conc. 0.185185 µM, duplicate values, read-out: % Inhibition): 94.1%; % Inhibition (DYRK2 kinase, Conc. 0.555556 µM, duplicate values): 96.77%; inhibition at 0.555556 µM (DYRK2 kinase, Conc. 0.555556 µM, duplicate values, read-out: % Inhibition): 96.8%; % Inhibition [19]: 98.11%; inhibition at 1.66667 µM [19]: 97.3%; % Inhibition (DYRK2 kinase, Conc. 5 µM, duplicate values): 97.16%; inhibition at 5 µM (DYRK2 kinase, Conc. 5 µM, duplicate values, read-out: % Inhibition): 97.8%

The next lines start with results.

% Inhibition [1] | % Inhibition [2] | inhibition at 0.00152416 µM [3] [%] | % Inhibition [4] | inhibition at 0.00457247 µM [4] [%] | % Inhibition [5] | inhibition at 0.0137174 µM [6] [%] | % Inhibition [7] | inhibition at 0.0411523 µM [8] [%] | % Inhibition [9] | inhibition at 0.123457 µM [10] [%] | inhibition at 0.37037 µM [11] [%] | inhibition at 1.11111 µM [12] [%] | inhibition at 3.33333 µM [13] [%] | inhibition at 10 µM [14] [%] | IC50 [nM] | % Inhibition [15] | % Inhibition [16] | % Inhibition [17] [%] | % Inhibition [18] [%] | Compound | also measured
4.24% and 12.86% | 17.49% | 14 | 28.06% | 27.4 | 45.74% | 44.6 | 67.90% | 69.6 | 84.14% | 84.5 | 93.3 | 98 | 94.3 | 96.2 |  | 92.83% | 95.77% | 95.36 | 95.58 | CC(C)N1CCN(C(=O)c2ccc(Nc3ncc(F)c(-c4ccc5nc(N(C)C)sc5c4)n3)nc2)CC1 [Compound 25] | DYRK2 inhibitory activity (in words): further improved DYRK2 inhibitory activity
-2.37% and 0.19% | 1.48% | 1.6 | 3.31% and -4.82% |  | 5.42% and 2.62% |  | -2.71% and -6.99% |  | 2.56% and -2.91% |  |  |  | 2.35 | 7.66 |  | 3.14% and 0.34% | -1.20% and -1.05% | 2.76 | 7.55 | CCN1CCN(C(=O)c2ccc(Nc3nc(-c4ccc5nc(N(C)C)sc5c4)c4sccc4n3)nc2)CC1 [Compound 27] | DYRK2 inhibitory activity (in words): no inhibition
